From US7759101B2, “Ginsenoside glycosidases hydrolyzing ginsenoside sugar moieties and uses thereof” (priority 2000, dated 2010)

What was measured:
[1] = system: ginsenoside glycosidases from Tremella; test: Hydrolysis of Rb1 with ginsenoside glycosidases from Tremella; format: biochemical, Tremella sp. FFCCDL-12 g; conditions: 1% Rb1 in acetate buffer containing 20% ethanol, 40° C., 20 hours
Description: Tremella sp. FFCCDL-12 g (available from Food Fermentation Culture Collection of Dalian Institute of Light Industry) was cultured on a solid medium containing 125 g of ginseng powder, 374 g of wheat bran and 500 ml of water for 5 to 7 days. Then 2500 ml of 0.01 M acetate buffer pH 5.0 was added to the solid medium to stand for 2 hours. Insolubles were removed by centrifugation and approximately 2000 ml liquid was obtained. (NH4)2SO4 powder was added to the liquid with stirring to 70% saturation. The solution was stored at 4° C. overnight and centrifuged to collect the pellets. The pellets were resuspended and the suspension was dialyzed against 0.01M acetate buffer pH 5. Then the solution was diluted in 0.01 M acetate buffer to a volume of 150 ml. Impurities were removed by centrifugation, and crude enzyme solution was obtained.
10 ml of the enzyme solution was allowed to react with 10 ml of 1% Rb1 in acetate buffer containing 20% ethanol at 40° C. for 20 hours. […] The optimal reaction temperature for the enzymes is 50° C. and the optimal pH is pH 5.5.

[2] = system: Enzymes from Malts; test: Hydrolysis of Rb1 with enzymes from malts; format: biochemical, malt; conditions: 1% Rb1 solution, pH 5, 20% ethanol, 40° C., 20 hours
Description: 200 g of malt was ground and added to 1000 ml of 0.01 M acetate buffer pH 5 for extraction under room temperature for two hours. The mixture was filtrated. To the supernatant 3 volumes of ethanol was added and stand overnight. Precipitates were collected to which 50 ml of 0.01 M acetate buffer pH 5 was added. Insolubles were removed and enzyme solution was obtained. 10 ml of the enzyme solution was allowed to react with 10 ml of 1% Rb1 solution (in 0.01 M acetate buffer pH 5 containing 20% ethanol) at 40° C. for 20 hours. The product was detected by TLC. As a result, more than 95% Rb1 was converted to Rd, F2, C-K and Rg3 and the like.

[3] = system: Enzymes from Animal Liver; test: Hydrolysis of Rb1 with enzymes from animal liver; format: biochemical, bovine; conditions: 1% Rb1 solution, pH 5, 20% ethanol, 40° C., 20 hours
Description: 100 g of bovine liver was minced and added to 300 ml of 0.01 M acetate buffer pH 5 for extraction under room temperature for two hours. The mixture was centrifuged and (NH4)2SO4 was added to the supernatant to 70% saturation to precipitate the enzymes. The mixture was stored at 4° C. overnight. Precipitates were collected by centrifugation and dialyzed against 0.01 M acetate buffer pH 5. Impurities were removed and 15 ml of enzyme solution was obtained. 10 ml of the enzyme solution was allowed to react with 10 ml of 1% Rb1 solution (in 0.01 M acetate buffer pH 5 containing 20% ethanol) at 40° C. for 20 hours.

[4] = system: Enzymes from Plant Seeds—Almond; test: Hydrolysis of Rb1 with enzymes from almond; format: biochemical; conditions: 1% Rb1 solution, pH 5, 20% ethanol, 50° C., 14 hours
Description: 100 g of almond was ground and added to 300 ml of 0.01 M acetate buffer pH 5 for extraction under room temperature for two hours. The mixture was centrifuged. (NH4)2SO4 was added to the supernatant to 60% saturation to precipitate the enzymes. The mixture was stored at 4° C. overnight. Precipitates were collected by centrifugation and dialyzed against 0.01 M acetate buffer pH 5. Impurities were removed and 30 ml of enzyme solution was obtained. 10 ml of the enzyme solution was allowed to react with 10 ml of 1% Rb1 solution (in 0.01 M acetate buffer pH 5 containing 20% ethanol) at 50° C. for 14 hours.

[5] = system: ginsenoside glycosidase III; test: Hydrolysis of ginsenoside Rd with ginsenoside glycosidase III (Fraction 18); format: biochemical, Aspergillus niger; conditions: substrate 0.5%, pH 5.0, 30° C., 18 hours
Description: Ginsenoside glycosidase II was purified from the crude enzyme solution obtained in 1.1 by HPLC. Separation column: Bio-Scale Q (BioRad), 2 ml/tube. 1 ml of the crude enzyme solution was loaded on the column, and eluted with solvent A (25 mM Tris-HCl buffer pH 7.4) and solvent B (0.5M NaCl in 20 mM Tris-HCl buffer pH 7.4). Fraction 18 appeared as a single dot when running on a SDS-polyacrylamide gel and thus represented a purified enzyme. The enzyme was designated as ginsenoside glycosidase III. This enzyme can hydrolyze the diglucosyl groups at C-3 of aglycone, converting Rd and Rg3 to C-K and aglycone.
To observe the differences between the ginsenoside glycosidases of the invention and known exo-cellulases, the ginsenoside glycosidases of the invention were compared with cellulose β-glucosidase (E.C. 3.2.1.21) in two reactions with 0.5% ginsenosides Rb1 or Rd as substrate.

[6] = system: ginsenoside glycosidases from Streptomyces; test: Hydrolysis of Rd with ginsenoside glycosidases from Streptomyces; format: biochemical, Streptomyces sp. FFCCDL-2 g; conditions: 1% Rd in acetate buffer containing 20% ethanol, 50° C., 20 hours
Description: Streptomyces sp. FFCCDL-2 g (available from Food Fermentation Culture Collection of Dalian Institute of Light Industry) was cultured at 30° C. for 48 hours in a medium containing 1% by weight of ginseng extracts and 3% by weight of wheat bran extracts. Cells were removed by centrifugation, after which (NH4)2SO4 powder was added to 300 ml of the cell-free supernatant to 70% saturation to precipitate the enzymes. The solution was stored at 4° C. overnight and centrifuged to collect the pellets. The pellets were resuspended and the suspension was dialyzed against 0.01M acetate buffer pH 5. Impurities were removed by centrifugation, and 15 ml of crude enzyme solution was obtained.
10 ml of the enzyme solution was allowed to react with 10 ml of 1% Rd in acetate buffer containing 20% ethanol at 50° C. for 20 hours.

[7] = system: ginsenoside glycosidase III from ginseng plant; test: Hydrolysis of Rd with fraction 37 (ginsenoside glycosidase III) from ginseng plant; format: biochemical; conditions: Fraction 37; substrate 0.5%; 50° C., pH 5.0, 18 hours
Description: 200 g of fresh ginseng root was cut into pieces and added to 600 ml of 0.02 M acetate buffer pH 5. Supernatant was obtained by filtration after the mixture stand at 40° C. for 2 hours. To the supernatant (NH4)2SO4 was added gradually until 70% saturation and the mixture stand overnight at 4° C. Then protein pellets were collected by centrifugation and redissolved in 15 ml of distilled water. The solution was dialyzed against 0.02 M Tris-HCl pH 7.4. Insolubles were removed by centrifugation and the volume of the supernatant was adjusted to 20 ml.
5 ml of the enzyme solution was subjected to a DEAE-Cellulose DE-25 column (Whatman, 1.4×6.7 cm). The column was eluted with a KCl gradient (0.06, 0.12, 0.18 and 0.24 M) in 0.02 M Tris-HCl pH 7.4. After elution, each fraction was tested for the activity of hydrolyzing ginsenosides. […] Fraction 52 can also hydrolyze the glucosidic bond at the twentieth carbon atom of Rb and Rc to give ginsenoside F2.

Compound: CC(C)=CCC[C@](C)(O[C@@H]1O[C@H](CO[C@@H]2O[C@H](CO)[C@@H](O)[C@H](O)[C@H]2O)[C@@H](O)[C@H](O)[C@H]1O)[C@H]1CC[C@]2(C)[C@@H]1[C@H](O)C[C@@H]1[C@@]3(C)CC[C@H](O[C@@H]4O[C@H](CO)[C@@H](O)[C@H](O)[C@H]4O[C@@H]4O[C@H](CO)[C@@H](O)[C@H](O)[C@H]4O)C(C)(C)[C@@H]3CC[C@]12C [Rb1, ginsenoside Rb1]
- C-K in the product mixture [1]: 35%
- F2 in the product mixture [1]: 40%
- Rd in the product mixture [1]: 25%
- Rb1 converted to Rd, F2, C-K and Rg3 and the like [2]: more than 95%
- Rb1 converted to ginsenosides with lower sugar contents [3]: 50%
- Rb1 converted to ginsenosides with lower sugar contents [4]: 40%

Compound: CC(C)=CCC[C@](C)(O[C@@H]1O[C@H](CO)[C@@H](O)[C@H](O)[C@H]1O)[C@H]1CC[C@]2(C)[C@@H]1[C@H](O)C[C@@H]1[C@@]3(C)CC[C@H](O[C@@H]4O[C@H](CO)[C@@H](O)[C@H](O)[C@H]4O[C@@H]4O[C@H](CO)[C@@H](O)[C@H](O)[C@H]4O)C(C)(C)[C@@H]3CC[C@]12C [Rd, ginsenoside Rd]
- Percentage of C—K in the reaction product [5]: 36%
- Percentage of Rd in the reaction product [5]: 61%
- Percentage of aglycone in the reaction product [5]: 3%
- Rd converted to ginsenoside F2 [6]: 50%
- Percentage of C—K in the reaction product [7]: 55%
- Percentage of Rd in the reaction product [7]: 45%
